In assay [1] the test system is GFP-LRRK2. As to the kind of experiment: Fluorescence microscopy of GFP-LRRK2 localization in HEK-293 Flp-in T-REx cells. In kind it is cell-based, human. The note with it: wild-type GFP-LRRK2; 1 μM LRRK2-IN1 for 90 minutes. The procedure: T-REx cells lines harboring the indicated LRRK2 variants were induced for 24 h with 1 μg/ml doxycycline to induce expression of GFP-LRRK2. After induction, cells were exposed to vehicle control (DMSO) or 1 μM LRRK2-IN1 for 90 minutes, then fixed with paraformaldehyde and GFP fluorescence was imaged. Representative fluorescent micrographs of cultures for the indicated phosphosite mutants in the presence and absence of inhibitor are shown, localization analysis was performed at least three times. White scale bar represents 10 microns.
HEK-293 Flp-in T-REx cells harbouring GFP tagged LRRK2 and PD associated mutations were plated in 4-well glass bottom, CC2 coated chamber slides (Nunc). One day after plating, cells were induced with 1 μg/ml doxycycline and 24 hr later, cells were fixed in 4% paraformaldehyde buffered in phosphate buffered saline (purchased from Electron Microscopy Sciences, #15710). Cells were imaged under on a Nikon TiE microscope with a 60× objective.

In assay [2] the target is 14-3-3 binding to LRRK2 (Homo sapiens, UniProt Q5S007). Description: 14-3-3 overlay (far-western) assay of immunoprecipitated GFP-LRRK2. In kind it is cell-based. The note with it: 1 μM LRRK2-IN1 for 90 minutes.
Description: The indicated variants of full-length GFP-tagged LRRK2 were expressed from a stable and inducible locus in HEK293 T-REx cells and subjected to immunoprecipitation analysis. Immunoprecipitates were subjected to immunoblot analysis with anti-GFP, and anti-phospho-Ser910 (αpS910), anti-phospho-Ser935 (αpS935), anti-phospho-Ser955 (αpS955), and anti-phospho-Ser973 (αpS973) antibodies. 14-3-3 binding to the LRRK2 variants was assessed by 14-3-3 far-western blot analyses. All blots were co-probed with phospho antibody and GFP (total protein) monoclonal antibody and analyzed by Odyssey® LI-COR analysis; a representative total GFP blot is shown.
The Nanotrap GFP-Trap_A matrix was from ChromoTek (GTA-20). […] LiCOR Dyelight labelled 14-3-3 protein (recombinant, His tagged BMH1, a kind gift of Dr. Dario Alessi) was prepared as per the manufacturer's instructions and used to detect 14-3-3 binding. […] Fluorescent secondary antibodies were from Li-COR (Lincoln Nebr.) or Rockland immunochemicals (Rockland Ill.) LRRK2 Immunoprecipitation assays. Cell lysates were prepared in Lysis buffer (1.0 ml per 15 cm dish) and subjected to immunoprecipitation with GFP-trapA beads at 10 ul beads per 1.0 ml lysate for 1 hr. […]
In assay [3] the target is T1, LRRK2 (Homo sapiens, UniProt Q5S007, D2017A).
T1 construct: expressed in transfected cells; host or cells: HEK293 Flp-in T-REx, doxycycline-induced
Description: Immunoblot of LRRK2 phosphosites after GFP immunoprecipitation from HEK293 T-REx cells expressing GFP-LRRK2 variants. In kind it is cell-based. The note with it: kinase inactive LRRK2 mutants; after LRRK2-IN1 treatment. The procedure:
(§1) Protein concentrations were determined using the Bradford method with BSA as the standard.
On the technique in general: A western blot detects proteins with antibodies after separation by electrophoresis.

The target of assay [4] is T2, LRRK2 (Homo sapiens, UniProt Q5S007). The description is as above. Format: cell-based. To be noted: T-REx cells expressing active LRRK2; 1 μM LRRK2-IN1 for 90 minutes. The procedure: as §1
The target of assay [5] is T2, LRRK2. As to the kind of experiment: Immunoprecipitation of FLAG-tagged wild-type LRRK2 from treated HEK 293 cells, in vitro autophosphorylation kinase assay, phosphosite immunoblot. Format: cell-based. To be noted: transient expression, 1 μM LRRK2-IN1 for 90 minutes.
Description: Immunoprecipitates were extensively washed then subjected to in vitro kinase assay in the presence or absence of ATP,in the presence or absence of LRRK2-1N1. Reaction products were immunoblotted with antiphospho-Ser1491 (αpThr1491), anti-phospho-Ser910 (αpS910), anti-phospho-Ser935 (αpS935), anti-phospho-Ser955 (αpS955), and anti-phospho-Ser973 (αpS973) antibodies.
Immunoprecipitation Kinase Assay conditions. Wild-type LRRK2 was transiently expressed in HEK293 cells using polyethylenimine for approximately 36 hours, then cells were treated with DMSO or 1 μM LRRK2-IN1 for 90 minutes. Lysates were then subjected to immunoprecipitation with anti-FLAG M2 agarose at a ratio of 1 μl beads per 100 μg of lysate for 2 hours.
For assay [6], the system named is LRRK2. Description: Western blot of LRRK2 phosphorylation sites, FLAG tagged LRRK2 in HEK293 T-Rex cells (FIG. 4). Format: cell-based, human. The note with it: kinase dead and inhibitor resistant mutant samples. From the text: Full length, FLAG tagged, wild-type or mutant LRRK2 (as indicated in FIG. 4) was expressed from a stable/inducible locus of HEK293 T-Rex cells (Invitrogen).

Assay [7] deals with T1, LRRK2. The note with it: cited from earlier work.

T2 sequence (Q5S007 whole entry): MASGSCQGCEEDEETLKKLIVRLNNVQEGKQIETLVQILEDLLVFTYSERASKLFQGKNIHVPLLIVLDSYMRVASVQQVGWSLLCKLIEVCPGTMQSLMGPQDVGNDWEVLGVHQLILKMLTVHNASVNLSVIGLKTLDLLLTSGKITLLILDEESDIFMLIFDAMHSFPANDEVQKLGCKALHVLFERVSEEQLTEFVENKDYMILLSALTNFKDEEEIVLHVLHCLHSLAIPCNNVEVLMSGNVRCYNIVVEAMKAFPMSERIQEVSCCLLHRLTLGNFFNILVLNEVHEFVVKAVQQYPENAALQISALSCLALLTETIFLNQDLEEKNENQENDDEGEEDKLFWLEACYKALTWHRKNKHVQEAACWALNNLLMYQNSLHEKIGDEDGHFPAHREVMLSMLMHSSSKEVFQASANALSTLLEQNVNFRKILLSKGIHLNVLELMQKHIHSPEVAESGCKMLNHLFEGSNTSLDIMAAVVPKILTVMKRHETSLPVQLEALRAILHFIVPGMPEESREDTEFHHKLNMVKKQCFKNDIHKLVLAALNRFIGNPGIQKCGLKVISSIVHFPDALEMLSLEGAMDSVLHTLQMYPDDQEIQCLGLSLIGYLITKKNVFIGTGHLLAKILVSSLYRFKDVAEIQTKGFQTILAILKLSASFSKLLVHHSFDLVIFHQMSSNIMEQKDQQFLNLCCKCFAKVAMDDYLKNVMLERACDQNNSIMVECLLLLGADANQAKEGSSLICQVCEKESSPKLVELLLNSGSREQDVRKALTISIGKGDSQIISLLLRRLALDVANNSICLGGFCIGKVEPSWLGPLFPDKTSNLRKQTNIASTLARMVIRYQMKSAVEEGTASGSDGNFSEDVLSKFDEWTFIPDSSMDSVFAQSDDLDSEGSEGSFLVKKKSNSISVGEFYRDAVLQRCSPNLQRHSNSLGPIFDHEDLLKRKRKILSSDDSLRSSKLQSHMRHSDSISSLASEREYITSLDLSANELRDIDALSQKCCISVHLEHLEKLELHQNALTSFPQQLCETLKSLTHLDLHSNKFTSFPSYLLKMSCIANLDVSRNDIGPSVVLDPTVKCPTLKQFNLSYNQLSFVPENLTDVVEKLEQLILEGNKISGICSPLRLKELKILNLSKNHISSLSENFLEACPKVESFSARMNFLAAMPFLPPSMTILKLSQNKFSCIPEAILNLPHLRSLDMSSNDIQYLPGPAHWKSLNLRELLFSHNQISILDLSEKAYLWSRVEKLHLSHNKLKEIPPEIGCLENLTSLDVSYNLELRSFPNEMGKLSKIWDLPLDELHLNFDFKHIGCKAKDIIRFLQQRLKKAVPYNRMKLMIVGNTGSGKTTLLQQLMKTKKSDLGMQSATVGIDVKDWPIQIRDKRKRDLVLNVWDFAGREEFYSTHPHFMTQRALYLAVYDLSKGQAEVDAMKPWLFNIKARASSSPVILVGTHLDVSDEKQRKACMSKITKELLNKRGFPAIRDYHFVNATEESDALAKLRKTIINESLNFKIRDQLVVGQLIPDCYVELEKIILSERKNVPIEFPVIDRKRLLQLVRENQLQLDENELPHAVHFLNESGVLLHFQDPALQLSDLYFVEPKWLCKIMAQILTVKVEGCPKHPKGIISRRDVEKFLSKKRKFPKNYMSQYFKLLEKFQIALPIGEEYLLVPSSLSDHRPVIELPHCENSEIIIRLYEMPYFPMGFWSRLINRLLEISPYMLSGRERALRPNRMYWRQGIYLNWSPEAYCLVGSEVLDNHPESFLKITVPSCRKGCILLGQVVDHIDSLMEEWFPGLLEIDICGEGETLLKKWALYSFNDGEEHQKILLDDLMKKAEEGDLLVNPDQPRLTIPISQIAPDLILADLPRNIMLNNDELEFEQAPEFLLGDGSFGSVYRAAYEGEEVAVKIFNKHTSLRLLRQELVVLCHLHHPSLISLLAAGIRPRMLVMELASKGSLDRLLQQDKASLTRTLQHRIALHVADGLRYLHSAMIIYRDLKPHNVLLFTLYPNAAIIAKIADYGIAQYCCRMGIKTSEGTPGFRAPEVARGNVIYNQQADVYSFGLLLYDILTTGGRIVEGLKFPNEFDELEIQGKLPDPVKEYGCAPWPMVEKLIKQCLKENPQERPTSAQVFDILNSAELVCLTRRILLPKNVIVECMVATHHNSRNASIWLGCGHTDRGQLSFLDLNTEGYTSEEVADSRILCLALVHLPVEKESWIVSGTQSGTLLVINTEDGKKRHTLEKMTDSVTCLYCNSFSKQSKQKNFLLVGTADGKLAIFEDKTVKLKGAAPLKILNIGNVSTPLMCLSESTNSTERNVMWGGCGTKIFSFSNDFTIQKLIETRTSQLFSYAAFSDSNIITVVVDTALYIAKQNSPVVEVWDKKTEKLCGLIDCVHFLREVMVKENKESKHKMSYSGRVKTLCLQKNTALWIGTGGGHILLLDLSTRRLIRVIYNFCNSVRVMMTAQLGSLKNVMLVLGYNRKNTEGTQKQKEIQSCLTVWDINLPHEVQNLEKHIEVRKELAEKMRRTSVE
T1 sequence (Q5S007 whole entry D2017A): as the sequence (Q5S007 whole entry) above, with D2017A counted along it
Sequence of 14-3-3 binding to LRRK2 (Q5S007 whole entry): as the sequence (Q5S007 whole entry) above

Consider `COc1cc(C(=O)N2CCC(N3CCN(C)CC3)CC2)ccc1Nc1ncc2c(n1)N(C)c1ccccc1C(=O)N2C` [LRRK2-IN1], for which the “localization of GFP tagged LRRK2” value in assay [1] is “re-localization of the GFP tagged enzyme to intracellular puncta, large accumulations and microtubule like structures”. Moreover, the “direct 14-3-3 association with LRRK2” value in assay [2] was “reduced direct 14-3-3 association”. Also, the “phosphorylation of Serines 910 and 935 or 955 and 973 in kinase inactive mutants” value in assay [3] is “no change was observed”. In assay [4], the “phosphorylation of Serines 910/935” value is reported as “complete dephosphorylation”; the “phosphorylation of Serines 955 and 973” value is “dephosphorylation”. Moreover, the “phosphorylation of Ser910, Ser935, Ser955 and Ser973 of FLAG tagged wild-type LRRK2” value in assay [5] is reported as “dephosphorylated at the corresponding residues”. Further, in assay [6], the “specificity of the inhibitor effects on phosphorylation of serines 955 and 973” value is recorded as “specific to LRRK2”.

As to `Cc1cncc2cccc(S(=O)(=O)N3CCCNC[C@@H]3C)c12` [H-1152], the “basal level of LRRK2 phosphorylation at 910/935 in kinase inactive mutants” value in assay [7] is reported as “did not perturb”.
